Drawing on US20240043404A1 (AbbVie Inc., priority 2009, published 2024), this text covers EC50 for 18 molecules.

The subject of the first assay is RS4;11 cells. Briefly: RS4;11 cell viability assay (CellTiter Glo).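 Also: acute lymphoblastic leukemia line RS4,11, EC50 derived from percentage of viable cells after treatment relative to untreated controls, cell killing taken as a measure of Bcl-2 inhibition.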 The class given is cell-based, human. To be noted: 50,000 cells per well, 10% human serum, 48 hours; read-out: RS4; 11 EC50 Values. (In ATP-based viability assays light output follows the ATP content of the culture.)
Method: The acute lymphoblastic leukemia (ALL) cell line RS4;11 was used as the primary human cell line to assess the cellular activity of Bcl-2 selective agents in vitro and their efficacy in vivo.
Cell cytotoxicity EC50 values were assessed using CellTiter Glo (Promega) according to the manufacturer's recommendations. The EC50 values were determined as a percentage of viable cells following treatment compared to the untreated control cells.
As to `CC1(C)CCC(CN2CCN(c3ccc(C(=O)NS(=O)(=O)c4cnc(OC[C@]5(F)CC[C@@](C)(O)CC5)c(Cl)c4)c(Oc4cnc5[nH]ccc5c4)c3)CC2)=C(c2ccc(Cl)cc2)C1` [Example 355, N-({5-chloro-6-[(trans-1-fluoro-4-hydroxy-4-methylcyclohexyl)methoxy]pyridin-3-yl}sulfonyl)-4-(4-{[2-(4-chlorophenyl)-4,4-dimethylcyclohex-1-en-1-yl]methyl}piperazin-1-yl)-2-(1H-pyrrolo[2,3-b]pyridin-5-yloxy)benzamide], the EC50 is 18.8 nM.

Staying with this assay, now noted: Homo sapiens, RS4-11, 48 h, 50,000 cells per well, 10% human serum, 48 hours; read-out: RS4; 11 EC50 Values.
On to `CC1(C)CCC(CN2CCN(c3ccc(C(=O)NS(=O)(=O)c4cnc(OCCC5CCCO5)c(Cl)c4)c(Oc4cnc5[nH]ccc5c4)c3)CC2)=C(c2ccc(Cl)cc2)C1` (stereo not drawn) [Example 289, 4-(4-{[2-(4-chlorophenyl)-4,4-dimethylcyclohex-1-en-1-yl]methyl}piperazin-1-yl)-N-({5-chloro-6-[2-(tetrahydrofuran-2-yl)ethoxy]pyridin-3-yl}sulfonyl)-2-(1H-pyrrolo[2,3-b]pyridin-5-yloxy)benzamide], for which the EC50 came out at 669 nM.
Regarding `CC1(C)CCC(c2ccc(Cl)cc2)=C(CN2CCN(c3ccc(C(=O)NS(=O)(=O)c4ccc(NCC5CCOCC5)c([N+](=O)[O-])c4)c(Oc4cnc5[nH]ccc5c4)c3)CC2)C1` [Example 75, 4-(4-{[2-(4-chlorophenyl)-5,5-dimethylcyclohex-1-en-1-yl]methyl}piperazin-1-yl)-N-({3-nitro-4-[(tetrahydro-2H-pyran-4-ylmethyl)amino]phenyl}sulfonyl)-2-(1H-pyrrolo[2,3-b]pyridin-5-yloxy)benzamide], the EC50 worked out at 15.1 nM.
Regarding `CC1(C)CCC(CN2CCN(c3ccc(C(=O)NS(=O)(=O)c4ccc(NCC5CCCN(S(C)(=O)=O)C5)c([N+](=O)[O-])c4)c(Oc4cnc5[nH]ccc5c4)c3)CC2)=C(c2ccc(Cl)cc2)C1` (stereo not drawn) [Example 147, 4-(4-{[2-(4-chlorophenyl)-4,4-dimethylcyclohex-1-en-1-yl]methyl}piperazin-1-yl)-N-{[4-({[1-(methylsulfonyl)piperidin-3-yl]methyl}amino)-3-nitrophenyl]sulfonyl}-2-(1H-pyrrolo[2,3-b]pyridin-5-yloxy)benzamide], the EC50 was 26.2 nM.
For the molecule `CC1(C)CCC(CN2CCN(c3ccc(C(=O)NS(=O)(=O)c4ccc(NC[C@H]5CCN(C6CCOCC6)C5)c([N+](=O)[O-])c4)c(Oc4cnc5[nH]ccc5c4)c3)CC2)=C(c2ccc(Cl)cc2)C1` [Example 118, 4-(4-{[2-(4-chlorophenyl)-4,4-dimethylcyclohex-1-en-1-yl]methyl}piperazin-1-yl)-N-{[3-nitro-4-({[(3R)-1-tetrahydro-2H-pyran-4-ylpyrrolidin-3-yl]methyl}amino)phenyl]sulfonyl}-2-(1H-pyrrolo[2,3-b]pyridin-5-yloxy)benzamide], the EC50 came to 12.9 nM.
Turning to `CC1(C)CCC(CN2CCN(c3ccc(C(=O)NS(=O)(=O)c4cnc(OCC5(F)CCOCC5)c(F)c4)c(Oc4cnc5[nH]ccc5c4)c3)CC2)=C(c2ccc(Cl)cc2)C1` [Example 248, 4-(4-{[2-(4-chlorophenyl)-4,4-dimethylcyclohex-1-en-1-yl]methyl}piperazin-1-yl)-N-({5-fluoro-6-[(4-fluorotetrahydro-2H-pyran-4-yl)methoxy]pyridin-3-yl}sulfonyl)-2-(1H-pyrrolo[2,3-b]pyridin-5-yloxy)benzamide], the EC50 came out at 99.6 nM.
As to `CC1(C)CCC(CN2CCN(c3ccc(C(=O)NS(=O)(=O)c4ccc(OCC5CN(C6CC6)CCO5)c(Cl)c4)c(Oc4cnc5[nH]ccc5c4)c3)CC2)=C(c2ccc(Cl)cc2)C1` (stereo not drawn) [Example 331, N-({3-chloro-4-[(4-cyclopropylmorpholin-2-yl)methoxy]phenyl}sulfonyl)-4-(4-{[2-(4-chlorophenyl)-4,4-dimethylcyclohex-1-en-1-yl]methyl}piperazin-1-yl)-2-(1H-pyrrolo[2,3-b]pyridin-5-yloxy)benzamide], the EC50 was determined as 926 nM.
Consider `CC1(C)CCC(CN2CCN(c3ccc(C(=O)NS(=O)(=O)c4cnc(OCC5CCc6nccn6C5)c(Cl)c4)c(Oc4cnc5[nH]ccc5c4)c3)CC2)=C(c2ccc(Cl)cc2)C1` (stereo not drawn) [Example 342, 4-(4-{[2-(4-chlorophenyl)-4,4-dimethylcyclohex-1-en-1-yl]methyl}piperazin-1-yl)-N-{[5-chloro-6-(5,6,7,8-tetrahydroimidazo[1,2-a]pyridin-6-ylmethoxy)pyridin-3-yl]sulfonyl}-2-(1H-pyrrolo[2,3-b]pyridin-5-yloxy)benzamide], for which the EC50 turned out to be 50.9 nM.
As for `COCCOCCN1CC[C@@H](Nc2ccc(S(=O)(=O)NC(=O)c3ccc(N4CCN(CC5=C(c6ccc(Cl)cc6)CC(C)(C)CC5)CC4)cc3Oc3cnc4[nH]ccc4c3)cc2[N+](=O)[O-])C1` [Example 254, 4-(4-{[2-(4-chlorophenyl)-4,4-dimethylcyclohex-1-en-1-yl]methyl}piperazin-1-yl)-N-{[4-({(3R)-1-[2-(2-methoxyethoxy)ethyl]pyrrolidin-3-yl}amino)-3-nitrophenyl]sulfonyl}-2-(1H-pyrrolo[2,3-b]pyridin-5-yloxy)benzamide], the EC50 came out at 19.9 nM.
As to `CC1(C)CCC(CN2CCN(c3ccc(C(=O)NS(=O)(=O)c4ccc(OCC5CCN(C(CF)CF)CC5)c([N+](=O)[O-])c4)c(Oc4cnc5[nH]ccc5c4)c3)CC2)=C(c2ccc(Cl)cc2)C1` [Example 129, 4-(4-{[2-(4-chlorophenyl)-4,4-dimethylcyclohex-1-en-1-yl]methyl}piperazin-1-yl)-N-{[4-({1-[2-fluoro-1-(fluoromethyl)ethyl]piperidin-4-yl}methoxy)-3-nitrophenyl]sulfonyl}-2-(1H-pyrrolo[2,3-b]pyridin-5-yloxy)benzamide], the EC50 was determined as 14.8 nM.
`CC1(C)CCC(CN2CCN(c3ccc(C(=O)NS(=O)(=O)c4ccc(NCC5COCCN5C5CCC5)c([N+](=O)[O-])c4)c(Oc4cnc5[nH]ccc5c4)c3)CC2)=C(c2ccc(Cl)cc2)C1` (stereo not drawn) [Example 170, 4-(4-{[2-(4-chlorophenyl)-4,4-dimethylcyclohex-1-en-1-yl]methyl}piperazin-1-yl)-N-[(4-{[(4-cyclobutylmorpholin-3-yl)methyl]amino}-3-nitrophenyl)sulfonyl]-2-(1H-pyrrolo[2,3-b]pyridin-5-yloxy)benzamide]: the EC50 turned out to be 125 nM.
With `CC1(C)CCCC(c2ccc(Cl)cc2)=C1CN1CCN(c2ccc(C(=O)NS(=O)(=O)c3ccc(NCC4CCOCC4)c([N+](=O)[O-])c3)c(Oc3cnc4[nH]ccc4c3)c2)CC1` [Example 101, 4-(4-{[2-(4-chlorophenyl)-6,6-dimethylcyclohex-1-en-1-yl]methyl}piperazin-1-yl)-N-({3-nitro-4-[(tetrahydro-2H-pyran-4-ylmethyl)amino]phenyl}sulfonyl)-2-(1H-pyrrolo[2,3-b]pyridin-5-yloxy)benzamide], the EC50 came out at 299 nM.
Take `CC1(C)CCC(CN2CCN(c3ccc(C(=O)NS(=O)(=O)c4ccc(NC5CCN(CC(F)F)CC5)c([N+](=O)[O-])c4)c(Oc4cnc5[nH]ccc5c4)c3)CC2)=C(c2ccc(Cl)cc2)C1` [Example 97, 4-(4-{[2-(4-chlorophenyl)-4,4-dimethylcyclohex-1-en-1-yl]methyl}piperazin-1-yl)-N-[(4-{[1-(2,2-difluoroethyl)piperidin-4-yl]amino}-3-nitrophenyl)sulfonyl]-2-(1H-pyrrolo[2,3-b]pyridin-5-yloxy)benzamide]: the EC50 was 55.6 nM.
Regarding `CC1(C)CCC(CN2CCN(c3ccc(C(=O)NS(=O)(=O)c4ccc(NC5CCC(N6CCC(F)(F)C6)CC5)c([N+](=O)[O-])c4)c(Oc4cnc5[nH]ccc5c4)c3)CC2)=C(c2ccc(Cl)cc2)C1` (stereo not drawn) [Example 346, 4-(4-{[2-(4-chlorophenyl)-4,4-dimethylcyclohex-1-en-1-yl]methyl}piperazin-1-yl)-N-[(4-{[4-(3,3-difluoropyrrolidin-1-yl)cyclohexyl]amino}-3-nitrophenyl)sulfonyl]-2-(1H-pyrrolo[2,3-b]pyridin-5-yloxy)benzamide], the EC50 is 190 nM.
For the molecule `CC1(C)CCC(CN2CCN(c3ccc(C(=O)NS(=O)(=O)c4ccc(N[C@H]5CC[C@@H](NC6CC6)CC5)c([N+](=O)[O-])c4)c(Oc4cnc5[nH]ccc5c4)c3)CC2)=C(c2ccc(Cl)cc2)C1` [Example 122, Cis-4-(4-{[2-(4-chlorophenyl)-4,4-dimethylcyclohex-1-en-1-yl]methyl}piperazin-1-yl)-N-[(4-{[4-(cyclopropylamino)cyclohexyl]amino}-3-nitrophenyl)sulfonyl]-2-(1H-pyrrolo[2,3-b]pyridin-5-yloxy)benzamide], the EC50 worked out at 1.85 nM.
As to `CC1(C)CCC(CN2CCN(c3ccc(C(=O)NS(=O)(=O)c4ccc(NCC5CCC6(CC5)COC6)c([N+](=O)[O-])c4)c(Oc4cnc5[nH]ccc5c4)c3)CC2)=C(c2ccc(Cl)cc2)C1` [Example 365, 4-(4-{[2-(4-chlorophenyl)-4,4-dimethylcyclohex-1-en-1-yl]methyl}piperazin-1-yl)-N-({3-nitro-4-[(2-oxaspiro[3.5]non-7-ylmethyl)amino]phenyl}sulfonyl)-2-(1H-pyrrolo[2,3-b]pyridin-5-yloxy)benzamide], the EC50 was found to be 3.02 nM.
Regarding `CC1(C)CCC(CN2CCN(c3ccc(C(=O)NS(=O)(=O)c4ccc(NCc5ccc(OC(F)F)cc5)c([N+](=O)[O-])c4)c(Oc4cnc5[nH]ccc5c4)c3)CC2)=C(c2ccc(Cl)cc2)C1` [Example 177, 4-(4-{[2-(4-chlorophenyl)-4,4-dimethylcyclohex-1-en-1-yl]methyl}piperazin-1-yl)-N-[(4-{[4-(difluoromethoxy)benzyl]amino}-3-nitrophenyl)sulfonyl]-2-(1H-pyrrolo[2,3-b]pyridin-5-yloxy)benzamide], the EC50 was 159 nM.
For the molecule `CC1(C)CCC(CN2CCN(c3ccc(C(=O)NS(=O)(=O)c4ccc(NCC5CCN(C6CC6)CC5)c([N+](=O)[O-])c4)c(Oc4cnc5[nH]ccc5c4)c3)CC2)=C(c2ccc(Cl)cc2)C1` [Example 164, 4-(4-{[2-(4-chlorophenyl)-4,4-dimethylcyclohex-1-en-1-yl]methyl}piperazin-1-yl)-N-[(4-{[(1-cyclopropylpiperidin-4-yl)methyl]amino}-3-nitrophenyl)sulfonyl]-2-(1H-pyrrolo[2,3-b]pyridin-5-yloxy)benzamide], the EC50 worked out at 14.8 nM.
